# System: PDE4
# Test: Evaluation of PDE4 inhibitory activity, scintillation proximity assay
# Type: biochemical
# Conditions: scintillation proximity assay; read-out: PDE4 Inhibitory Activity (Evaluation 1; concentration for the inhibition rate of 50%)
# Procedure, shortened: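 IC50 was derived from inhibition curves, referenced to an enzyme-free blank and a DMSO-only control. Compound, PDE4 preparation and tritiated cAMP reacted 120 min at RT in Tris-HCl buffer (pH 7.4) with MgCl2, EGTA and BSA; YSi-SPA beads with ZnSO4 bound product before scintillation counting.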
row,SMILES,IC50
1,"OCCOC(c1ccc(-c2nccs2)c2oc(N3CC4CCC(C3)N4)nc12)C(F)(F)F (centres unmarked) [Example 225, 2-(1-(2-(3,8-Diazabicyclo[3.2.1]octan-3-yl)-7-(thiazol-2-yl)benzo[d]oxazol-4-yl)-2,2,2-trifluoroethoxy)ethan-1-ol]",< 100 nM
2,"N#CCOC(c1ccc(-c2nccs2)c2oc(N3CC4CC(C3)N4)nc12)C(F)(F)F (centres unmarked) [Example 226, 2-(1-(2-(3,6-Diazabicyclo[3.1.1]heptan-3-yl)-7-(thiazol-2-yl)benzo[d]oxazol-4-yl)-2,2,2-trifluoroethoxy)acetonitrile]",< 100 nM
3,"OCCOC(c1ccc(-c2nccs2)c2oc(N3CC4CC(C3)N4)nc12)C(F)(F)F (centres unmarked) [Example 227, 2-(1-(2-(3,6-Diazabicyclo[3.1.1]heptan-3-yl)-7-(thiazol-2-yl)benzo[d]oxazol-4-yl)-2,2,2-trifluoroethoxy)ethan-1-ol]",< 100 nM
4,"N#CCOC(c1ccc(-c2nccs2)c2oc(N3CC4CCC(C3)N4)nc12)C(F)(F)F (centres unmarked) [Example 228, 2-(1-(2-(3,8-Diazabicyclo[3.2.1]octan-3-yl)-7-(thiazol-2-yl)benzo[d]oxazol-4-yl)-2,2,2-trifluoroethoxy)acetonitrile]",< 100 nM
5,"COCCOC(c1ccc(-c2nccs2)c2oc(N3CC4CC(C3)N4)nc12)C(F)(F)F (centres unmarked) [Example 229, 2-(3,6-Diazabicyclo[3.1.1]heptan-3-yl)-7-(thiazol-2-yl)-4-(2,2,2-trifluoro-1-(2-methoxyethoxy)ethyl)benzo[d]oxazole]",< 100 nM
6,"OC1(COC(c2ccc(-c3nccs3)c3oc(N4CC5CC(C4)N5)nc23)C(F)(F)F)CC1 (centres unmarked) [Example 232, 1-((1-(2-(3,6-Diazabicyclo[3.1.1]heptan-3-yl)-7-(thiazol-2-yl)benzo[d]oxazol-4-yl)-2,2,2-trifluoroethoxy)methyl)cyclopropan-1-ol]",< 100 nM
7,"OC(O)(c1ccc(-c2nccs2)c2oc(N3CC4CCC(C3)N4)nc12)C(F)(F)F [Example 233, 1-(2-(3,8-Diazabicyclo[3.2.1]octan-3-yl)-7-(thiazol-2-yl)benzo[d]oxazol-4-yl)-2,2,2-trifluoroethane-1,1-diol]",< 100 nM
8,"CC(O)(c1ccc(-c2nccs2)c2oc(N3CC4CCC(C3)N4)nc12)C(F)(F)F (centres unmarked) [Example 236, 2-(2-(3,8-Diazabicyclo[3.2.1]octan-3-yl)-7-(thiazol-2-yl)benzo[d]oxazol-4-yl)-1,1,1-trifluoropropan-2-ol]",< 100 nM
9,"COC(=O)c1ccc(-c2nccs2)c2oc(N3CC4CCC(C3)N4)nc12 [Example 237, Methyl 2-(3,8-diazabicyclo[3.2.1]octan-3-yl)-7-(thiazol-2-yl)benzo[d]oxazole-4-carboxylate]",< 100 nM
10,"O=C(O)c1ccc(-c2nccs2)c2oc(N3CC4CCC(C3)N4)nc12 [Example 238, 2-(3,8-Diazabicyclo[3.2.1]octan-3-yl)-7-(thiazol-2-yl)benzo[d]oxazole-4-carboxylic acid]",< 100 nM
11,"CC(O)c1ccc(-c2nccs2)c2oc(N3CC4CCCC(C3)N4)nc12 (centres unmarked) [Example 239, 1-(2-(3,9-Diazabicyclo[3.3.1]nonan-3-yl)-7-(thiazol-2-yl)benzo[d]oxazol-4-yl)ethan-1-ol]",< 100 nM
12,"CC(O)c1ccc(-c2nccs2)c2oc(N3CC4CC(C3)N4)nc12 (centres unmarked) [Example 240, 1-(2-(3,6-Diazabicyclo[3.1.1]heptan-3-yl)-7-(thiazol-2-yl)benzo[d]oxazol-4-yl)ethan-1-ol]",< 100 nM
13,"COC(C)c1ccc(-c2nccs2)c2oc(N3CC4CC(C3)N4)nc12 (centres unmarked) [Example 241, 2-(3,6-Diazabicyclo[3.1.1]heptan-3-yl)-4-(1-methoxyethyl)-7-(thiazol-2-yl)benzo[d]oxazole]",< 100 nM
14,"COC(C)c1ccc(-c2nccs2)c2oc(N3CC4CCC(C3)N4)nc12 (centres unmarked) [Example 242, 2-(3,8-Diazabicyclo[3.2.1]octan-3-yl)-4-(1-methoxyethyl)-7-(thiazol-2-yl)benzo[d]oxazole]",< 100 nM
15,"COC(C)c1ccc(-c2nccs2)c2oc(N3CC4CCCC(C3)N4)nc12 (centres unmarked) [Example 243, 2-(3,9-Diazabicyclo[3.3.1]nonan-3-yl)-4-(1-methoxyethyl)-7-(thiazol-2-yl)benzo[d]oxazole]",< 100 nM
16,"CC(=O)c1ccc(-c2nccs2)c2oc(N3CC4CC(C3)N4)nc12 [Example 244, 1-(2-(3,6-Diazabicyclo[3.1.1]heptan-3-yl)-7-(thiazol-2-yl)benzo[d]oxazol-4-yl)ethan-1-one]",< 100 nM
17,"CC(=O)c1ccc(-c2nccs2)c2oc(N3CC4CCC(C3)N4)nc12 [Example 245, 1-(2-(3,8-Diazabicyclo[3.2.1]octan-3-yl)-7-(thiazol-2-yl)benzo[d]oxazol-4-yl)ethan-1-one]",< 100 nM
18,"CC(C)(O)c1ccc(-c2nccs2)c2oc(N3CC4CCC(C3)N4)nc12 [Example 247, 2-(2-(3,8-Diazabicyclo[3.2.1]octan-3-yl)-7-(thiazol-2-yl)benzo[d]oxazol-4-yl)propan-2-ol]",< 100 nM
19,"O=C(O)COC(c1ccc(-c2nccs2)c2oc(N3CC4CC(C3)N4)nc12)C(F)(F)F (centres unmarked) [Example 253, 2-(1-(2-(3,6-Diazabicyclo[3.1.1]heptan-3-yl)-7-(thiazol-2-yl)benzo[d]oxazol-4-yl)-2,2,2-trifluoroethoxy)acetic acid]",< 100 nM
20,CC(C)(O)COC(c1ccc(-c2nccs2)c2oc(N3CC4CC(C3)N4)nc12)C(F)(F)F (centres unmarked) [Example 255],< 100 nM
21,"NC(=O)COC(c1ccc(-c2nccs2)c2oc(N3CC4CC(C3)N4)nc12)C(F)(F)F (centres unmarked) [Example 256, 2-(1-(2-(3,6-Diazabicyclo[3.1.1]heptan-3-yl)-7-(thiazol-2-yl)benzo[d]oxazol-4-yl)-2,2,2-trifluoroethoxy)acetamide]",< 100 nM
22,"CC(C)(O)C(F)(F)OC(c1ccc(-c2nccs2)c2oc(N3CC4CC(C3)N4)nc12)C(F)(F)F (centres unmarked) [Example 257, 1-(1-(2-(3,6-Diazabicyclo[3.1.1]heptan-3-yl)-7-(thiazol-2-yl)benzo[d]oxazol-4-yl)-2,2,2-trifluoroethoxy)-1,1-difluoro-2-methylpropan-2-ol]",< 100 nM
23,"OCC(F)(F)OC(c1ccc(-c2nccs2)c2oc(N3CC4CC(C3)N4)nc12)C(F)(F)F (centres unmarked) [Example 258, 2-(1-(2-(3,6-Diazabicyclo[3.1.1]heptan-3-yl)-7-(thiazol-2-yl)benzo[d]oxazol-4-yl)-2,2,2-trifluoroethoxy)-2,2-difluoroethan-1-ol]",< 100 nM
24,"C[C@H](O)COc1ccc(-c2nccs2)c2oc(N3CC4CC(C3)N4)nc12 [Example 260, (2S)-1-((2-(3,6-diazabicyclo[3.1.1]heptan-3-yl)-7-(thiazol-2-yl)benzo[d]oxazol-4-yl)oxy)propan-2-ol]",< 100 nM
25,"CC(O)COC(c1ccc(-c2nccs2)c2oc(N3CC4CC(C3)N4)nc12)C(F)(F)F (centres unmarked) [Example 261, 1-(1-(2-(3,6-Diazabicyclo[3.1.1]heptan-3-yl)-7-(thiazol-2-yl)benzo[d]oxazol-4-yl)-2,2,2-trifluoroethoxy)propan-2-ol]",< 100 nM
26,"c1csc(-c2ccc(OC3CCCOC3)c3nc(N4CC5CCC(C4)N5)oc23)n1 (centres unmarked) [Example 262, 2-(3,8-Diazabicyclo[3.2.1]octan-3-yl)-4-((tetrahydro-2H-pyran-3-yl)oxy)-7-(thiazol-2-yl)benzo[d]oxazole]",< 100 nM

# Source: patent US12239643B2, “Therapeutic agent for inflammatory diseases, autoimmune diseases, fibrotic diseases, and cancer diseases” (MEIJI SEIKA PHARMA CO., LTD., priority 2018, dated 2025)
